Literature values as cited in US9863006B2, “Selective lysis of cells by ionic surfactants” (Biocartis NV, priority 2011, dated 2018).

Details: room temperature

CCCCCCCCCCCCOS(=O)(=O)[O-].[Na+] [sodium dodecyl sulfate]
time to cross the membrane: hours or days
